# Read-outs that look alike come from different tables or passages of the source.
# Key:
# Type in all cases: cell-based
# [1] = target: T1, human glucagon receptor (GCGR) (Homo sapiens, UniProt P47871); assay: cAMP assay, human GCGR cells
# T1 construct: expressed in transfected cells
# Procedure, shortened: (§1)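 Peptide-stimulated cAMP measured by two-step HTRF after a 30 min room-temperature incubation with receptor-expressing cells (hGLP-1R, hGIPR at 1×10^5 cells/ml; hGCGR at 2×10^5 cells/ml). Duplicate dilutions; EC50 from 4-parameter logistic fit of % Delta F.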
# [2] = target: T2, human glucose-dependent insulinotropic peptide receptor (GIPR) (Homo sapiens, UniProt P48546); assay: cAMP assay, human GIPR cells
# T2 construct: expressed in transfected cells
# T2 sequence (P48546 22-466): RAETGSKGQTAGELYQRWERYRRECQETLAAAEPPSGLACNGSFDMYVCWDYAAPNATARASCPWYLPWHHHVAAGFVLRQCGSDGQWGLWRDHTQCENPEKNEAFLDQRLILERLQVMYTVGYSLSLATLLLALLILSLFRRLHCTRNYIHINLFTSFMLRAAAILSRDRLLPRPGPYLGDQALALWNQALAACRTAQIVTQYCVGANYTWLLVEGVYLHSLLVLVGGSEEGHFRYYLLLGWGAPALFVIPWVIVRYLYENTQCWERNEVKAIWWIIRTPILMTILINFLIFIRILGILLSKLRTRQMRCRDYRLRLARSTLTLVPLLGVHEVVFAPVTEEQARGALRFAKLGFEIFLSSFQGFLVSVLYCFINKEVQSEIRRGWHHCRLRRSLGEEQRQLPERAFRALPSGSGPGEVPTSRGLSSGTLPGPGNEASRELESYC
# Procedure, shortened: as §1
# GLP-1R (INS1e assay) = target: T3, GLP-1R (INS1e assay) (Rattus norvegicus, UniProt P32301); assay: INS1e assay, cAMP activity at GLP-1R; settings: mono-lipidated peptides
# T3 construct: endogenous in cells; host or cells: INS-1E cells
# T3 sequence (P32301 22-463): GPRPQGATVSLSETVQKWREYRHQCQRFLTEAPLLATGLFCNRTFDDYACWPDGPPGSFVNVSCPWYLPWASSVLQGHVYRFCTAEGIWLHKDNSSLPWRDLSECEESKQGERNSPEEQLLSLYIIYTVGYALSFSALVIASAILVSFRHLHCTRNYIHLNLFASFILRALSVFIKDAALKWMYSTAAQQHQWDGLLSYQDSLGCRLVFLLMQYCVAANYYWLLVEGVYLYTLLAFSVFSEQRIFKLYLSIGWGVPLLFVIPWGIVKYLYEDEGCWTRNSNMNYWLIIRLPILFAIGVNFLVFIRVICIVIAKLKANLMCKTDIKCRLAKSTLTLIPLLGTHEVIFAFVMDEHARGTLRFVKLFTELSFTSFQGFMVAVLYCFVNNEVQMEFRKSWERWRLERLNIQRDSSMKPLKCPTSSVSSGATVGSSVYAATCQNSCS
# Procedure, shortened: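 cAMP was quantified by two-step HTRF, using anti-cAMP cryptate donor and cAMP-d2 acceptor, each diluted 1/20 in conjugate and lysis buffer. EC50 values of the synthetic peptides were derived from the cAMP readout.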
# [3] = target: T4, human GLP-1 receptor (GLP-1R) (Homo sapiens, UniProt P43220); assay: cAMP assay, human GLP-1R cells
# T4 construct: expressed in transfected cells
# Procedure, shortened: as §1
# [4] = mean of n1 and n2, read-out: INS1e assay EC50 Mean pM GLP-1R
# [5] = replicate n1, read-out: INS1e assay EC50 GLP-1R n1
# [6] = replicate n2, read-out: INS1e assay EC50 GLP-1R n2
# [7] = mean of n1 and n2, read-out: Mean pM GLP-1R
# [8] = cAMP assay, first determination (n1), read-out: Primary assay EC50 GLP-1R n1
# [9] = cAMP assay, second determination (n2), read-out: Primary assay EC50 GLP-1R n2
# T4 sequence (P43220 24-463): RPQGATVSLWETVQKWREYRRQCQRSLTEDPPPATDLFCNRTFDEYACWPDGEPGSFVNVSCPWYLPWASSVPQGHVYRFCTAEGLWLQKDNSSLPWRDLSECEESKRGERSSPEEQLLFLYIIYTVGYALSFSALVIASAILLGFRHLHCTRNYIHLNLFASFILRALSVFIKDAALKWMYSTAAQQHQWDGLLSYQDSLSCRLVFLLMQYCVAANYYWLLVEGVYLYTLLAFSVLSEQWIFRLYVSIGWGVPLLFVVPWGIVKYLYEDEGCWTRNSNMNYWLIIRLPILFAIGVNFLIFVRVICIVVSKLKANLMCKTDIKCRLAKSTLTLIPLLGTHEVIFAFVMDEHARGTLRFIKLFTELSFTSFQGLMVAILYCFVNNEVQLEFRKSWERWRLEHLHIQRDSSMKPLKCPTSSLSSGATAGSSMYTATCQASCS
# T1 sequence (P47871 26-477): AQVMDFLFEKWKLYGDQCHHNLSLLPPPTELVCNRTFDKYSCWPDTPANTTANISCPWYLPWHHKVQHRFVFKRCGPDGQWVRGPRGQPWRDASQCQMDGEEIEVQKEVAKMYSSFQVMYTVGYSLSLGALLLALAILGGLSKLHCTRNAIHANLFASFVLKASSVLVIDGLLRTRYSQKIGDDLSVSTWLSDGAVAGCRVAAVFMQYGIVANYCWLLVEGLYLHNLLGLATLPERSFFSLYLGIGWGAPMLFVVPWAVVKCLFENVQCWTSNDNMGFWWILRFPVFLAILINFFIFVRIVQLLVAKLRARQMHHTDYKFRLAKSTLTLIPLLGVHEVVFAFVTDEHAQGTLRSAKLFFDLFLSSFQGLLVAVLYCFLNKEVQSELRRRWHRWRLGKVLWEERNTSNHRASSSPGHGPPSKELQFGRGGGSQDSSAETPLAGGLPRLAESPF
"EC50 ([1]; first run (n1), cAMP activity of substituted and mono-lipidated peptides, read-out: Primary assay EC50 Gluc-R) [nM]","EC50 ([1]; second run (n2), cAMP activity, read-out: Primary assay EC50 Gluc-R) [nM]","EC50 ([2]; first run (n1), cAMP activity, read-out: Primary assay EC50 GIP-R) [nM]","EC50 ([2]; second run (n2), cAMP activity, read-out: Primary assay EC50 GIP-R) [nM]",EC50 (GLP-1R (INS1e assay); [4]) [pM],EC50 (GLP-1R (INS1e assay); [5]) [pM],EC50 (GLP-1R (INS1e assay); [6]) [pM],"EC50 ([3]; first run (n1), cAMP activity, read-out: Primary assay EC50 GLP-1R n1) [pM]","EC50 [3, 7] [pM]","EC50 ([3]; second run (n2), cAMP activity, read-out: Primary assay EC50 GLP-1R n2) [pM]","EC50 ([1]; cAMP assay, first determination (n1), read-out: Primary assay EC50 Gluc-R (n1)) [nM]","EC50 ([1]; cAMP assay, second determination (n2), read-out: Primary assay EC50 Gluc-R (n2)) [nM]","EC50 ([2]; cAMP assay, first determination (n1), read-out: Primary assay EC50 GIP-R (n1)) [nM]","EC50 ([2]; cAMP assay, second determination (n2), read-out: Primary assay EC50 GIP-R (n2)) [nM]",Compound,"EC50 [3, 8] [pM]","EC50 [3, 9] [pM]","EC50 ([1]; Primary assay EC50 Gluc-R (n1), cAMP assay, first determination (n1)) [nM]","EC50 ([1]; read-out: Primary assay EC50 Gluc-R (n2), cAMP assay, second determination (n2)) [nM]","EC50 ([2]; Primary assay EC50 GIP-R (n1), cAMP assay, first determination (n1)) [nM]","EC50 ([2]; read-out: Primary assay EC50 GIP-R (n2), cAMP assay, second determination (n2)) [nM]"
≥ 27,≥ 27,≥ 27,≥ 27,144,114,173,30,20.8,12,–,–,–,–,CCCCCCCCCCCCCCCCCC(=O)NCCOCCOCC(=O)NCCOCCOCC(=O)NCCCC[C@H](NC(=O)[C@@H](NC(=O)[C@@H](NC(=O)[C@](C)(Cc1ccccc1)NC(=O)[C@H](C)NC(=O)[C@@H](NC(=O)[C@](C)(Cc1ccccc1)NC(=O)[C@H](CCC(=O)O)NC(=O)[C@](C)(CCCCN)NC(=O)[C@H](C)NC(=O)[C@H](C)NC(=O)[C@H](CCC(=O)O)NC(=O)CNC(=O)[C@H](CCC(=O)O)NC(=O)[C@H](CC(C)C)NC(=O)[C@](C)(Cc1ccccc1)NC(=O)[C@H](CO)NC(=O)[C@](C)(CO)NC(=O)[C@@H](NC(=O)[C@H](CC(=O)O)NC(=O)[C@H](CO)NC(=O)[C@@H](NC(=O)[C@](C)(Cc1ccccc1)NC(=O)[C@H](CO)NC(=O)CNC(=O)[C@H](CCC(=O)O)NC(=O)C(C)(C)NC(=O)[C@@H](N)Cc1c[nH]cn1)[C@@H](C)O)C(C)C)[C@@H](C)CC)C(C)C)C(C)C)C(=O)NCC(=O)NCC(N)=O [compound 189],–,–,–,–,–,–
–,–,–,–,8460,5230,11700,–,77,–,≥ 26,≥ 25.6,≥ 26,≥ 25.6,CC[C@H](C)[C@H](NC(=O)[C@H](CCCCNC(=O)COCCOCCNC(=O)COCCOCCNC(=O)CC[C@H](NC(=O)CCCCCCCCCCCCCCCCC(=O)O)C(=O)O)NC(=O)[C@H](CCC(=O)O)NC(=O)[C@](C)(CCCCN)NC(=O)[C@H](C)NC(=O)[C@H](C)NC(=O)[C@H](CCC(=O)O)NC(=O)CNC(=O)[C@H](CCC(=O)O)NC(=O)[C@H](CC(C)C)NC(=O)[C@](C)(Cc1ccccc1)NC(=O)[C@H](CO)NC(=O)[C@](C)(CO)NC(=O)[C@@H](NC(=O)[C@H](CC(=O)O)NC(=O)[C@H](CO)NC(=O)[C@@H](NC(=O)[C@](C)(Cc1ccccc1)NC(=O)[C@H](CO)NC(=O)CNC(=O)[C@H](CCC(=O)O)NC(=O)C(C)(C)NC(=O)[C@@H](N)Cc1c[nH]cn1)[C@@H](C)O)C(C)C)C(=O)N[C@@H](C)C(=O)N[C@@](C)(Cc1ccccc1)C(=O)N[C@H](C(=O)N[C@H](C(=O)N[C@@](C)(CCCCN)C(=O)NCC(=O)NCC(N)=O)C(C)C)C(C)C [compound 107],83,70.5,–,–,–,–

Compound,"EC50 ([1]; first run (n1), cAMP activity of substituted and mono-lipidated peptides, read-out: Primary assay EC50 Gluc-R) [nM]","EC50 ([1]; second run (n2), cAMP activity, read-out: Primary assay EC50 Gluc-R) [nM]","EC50 ([2]; first run (n1), cAMP activity, read-out: Primary assay EC50 GIP-R) [nM]","EC50 ([2]; second run (n2), cAMP activity, read-out: Primary assay EC50 GIP-R) [nM]",EC50 (GLP-1R (INS1e assay); [4]) [pM],EC50 (GLP-1R (INS1e assay); [5]) [pM],EC50 (GLP-1R (INS1e assay); [6]) [pM],"EC50 ([3]; first run (n1), cAMP activity, read-out: Primary assay EC50 GLP-1R n1) [pM]","EC50 [3, 7] [pM]","EC50 ([3]; second run (n2), cAMP activity, read-out: Primary assay EC50 GLP-1R n2) [pM]","EC50 ([1]; cAMP assay, first determination (n1), read-out: Primary assay EC50 Gluc-R (n1)) [nM]","EC50 ([1]; cAMP assay, second determination (n2), read-out: Primary assay EC50 Gluc-R (n2)) [nM]","EC50 ([2]; cAMP assay, first determination (n1), read-out: Primary assay EC50 GIP-R (n1)) [nM]","EC50 ([2]; cAMP assay, second determination (n2), read-out: Primary assay EC50 GIP-R (n2)) [nM]","EC50 [3, 8] [pM]","EC50 [3, 9] [pM]","EC50 ([1]; Primary assay EC50 Gluc-R (n1), cAMP assay, first determination (n1)) [nM]","EC50 ([1]; read-out: Primary assay EC50 Gluc-R (n2), cAMP assay, second determination (n2)) [nM]","EC50 ([2]; Primary assay EC50 GIP-R (n1), cAMP assay, first determination (n1)) [nM]","EC50 ([2]; read-out: Primary assay EC50 GIP-R (n2), cAMP assay, second determination (n2)) [nM]"
CC[C@H](C)[C@H](NC(=O)[C@](C)(Cc1ccccc1)NC(=O)[C@H](CCC(=O)O)NC(=O)[C@H](CCCCNC(=O)CCCCCNC(=O)CCCCCCCCCCCOc1ccc(C(=O)O)cc1)NC(=O)[C@H](C)NC(=O)[C@H](C)NC(=O)[C@H](CCC(=O)O)NC(=O)CNC(=O)[C@H](CCC(=O)O)NC(=O)[C@H](CC(C)C)NC(=O)[C@](C)(Cc1ccccc1)NC(=O)[C@H](CO)NC(=O)[C@](C)(CO)NC(=O)[C@@H](NC(=O)[C@H](CC(=O)O)NC(=O)[C@H](CO)NC(=O)[C@@H](NC(=O)[C@](C)(Cc1ccccc1)NC(=O)[C@H](CO)NC(=O)CNC(=O)[C@H](CCC(=O)O)NC(=O)C(C)(C)NC(=O)[C@@H](N)Cc1c[nH]cn1)[C@@H](C)O)C(C)C)C(=O)N[C@@H](C)C(=O)N[C@@](C)(Cc1ccccc1)C(=O)N[C@H](C(=O)N[C@H](C(=O)N[C@@](C)(CCCCN)C(=O)NCC(=O)NCC(N)=O)C(C)C)C(C)C [compound 140],–,–,–,–,30,43.2,16.7,–,4.9,–,–,–,–,–,5.9,3.9,≥ 27,≥ 27,≥ 27,≥ 27
